Results reported in PubChem BioAssay AID2060512 (Molecular Pharmacology Branch, DTP, NCI, 2025).

Test system: 186277-243-T-J2-PDC complex spheroid viability
Assay: Anticancer human tumor 186277-243-T-J2-PDC patient-derived colon adenocarcinoma cell line growth inhibition [GQUAD]
Conditions: for IC50: curve of first compound; for viability, T/C: stronger effect = lower value
Procedure, shortened: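 Multi-cell-type spheroids of tumor cells with HUVEC and mesenchymal stem cells, treated with drug combinations. Concentrations descend in half-log steps from near clinical Cmax, or from 10 microM where Cmax is unknown; viability read-out.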

[1] = second compound 0.0316 µM, first compound 0.0316 µM
[2] = second compound 0.0316 µM, first compound 0.1 µM
[3] = second compound 0.0316 µM, first compound 0.316 µM
[4] = second compound 0.0316 µM, first compound 1 µM
[5] = second compound 0.0316 µM, first compound 3.16 µM
[6] = second compound 0.0316 µM, first compound 10 µM
[7] = second compound 0.1 µM, first compound 0.0316 µM
[8] = second compound 0.1 µM, first compound 0.1 µM
[9] = second compound 0.1 µM, first compound 0.316 µM
[10] = second compound 0.1 µM, first compound 1 µM
[11] = second compound 0.1 µM, first compound 3.16 µM
[12] = second compound 0.1 µM, first compound 10 µM
[13] = second compound 0.316 µM, first compound 0.0316 µM
[14] = second compound 0.316 µM, first compound 0.1 µM
[15] = second compound 0.316 µM, first compound 0.316 µM
[16] = second compound 0.316 µM, first compound 1 µM
[17] = second compound 0.316 µM, first compound 3.16 µM
[18] = second compound 0.316 µM, first compound 10 µM
[19] = second compound 1 µM, first compound 0.0316 µM
[20] = second compound 1 µM, first compound 0.1 µM
[21] = second compound 1 µM, first compound 0.316 µM
[22] = second compound 1 µM, first compound 1 µM
[23] = second compound 1 µM, first compound 3.16 µM
[24] = second compound 1 µM, first compound 10 µM
[25] = second compound 3.16 µM, first compound 0.0316 µM
[26] = second compound 3.16 µM, first compound 0.1 µM
[27] = second compound 3.16 µM, first compound 0.316 µM
[28] = second compound 3.16 µM, first compound 1 µM
[29] = second compound 3.16 µM, first compound 3.16 µM
[30] = second compound 3.16 µM, first compound 10 µM
[31] = second compound 10 µM, first compound 0.0316 µM
[32] = second compound 10 µM, first compound 0.1 µM
[33] = second compound 10 µM, first compound 0.316 µM
[34] = second compound 10 µM, first compound 1 µM
[35] = second compound 10 µM, first compound 3.16 µM
[36] = second compound 10 µM, first compound 10 µM
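Also: spheroids exposed to drugs for 7 days.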
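For viability, T/C in this document: 100% = DMSO vehicle control viability.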

## C=CC(=O)N1CCN(c2nc(=O)n(-c3c(C)ccnc3C(C)C)c3nc(-c4c(O)cccc4F)c(F)cc23)C(C)C1 (centres undefined) + Cc1cnc(CNC(=O)c2c(=O)c3ccc(N4CCCN(C)CC4)nc3n3c2sc2ccccc23)cn1
Second compound 0.0316 µM
  IC50: > 10 µM
Second compound 0.1 µM
  IC50: > 10 µM
Second compound 0.316 µM
  IC50: > 10 µM
Second compound 1 µM
  IC50: > 10 µM
Second compound 3.16 µM
  IC50: < 0.0316 µM
Second compound 10 µM
  IC50: > 10 µM
[1]
  viability, T/C: 89.2%
[2]
  viability, T/C: 106%
[3]
  viability, T/C: 105%
[4]
  viability, T/C: 94.1%
[5]
  viability, T/C: 109%
[6]
  viability, T/C: 88.6%
[7]
  viability, T/C: 84.6%
[8]
  viability, T/C: 91.3%
[9]
  viability, T/C: 99%
[10]
  viability, T/C: 83.7%
[11]
  viability, T/C: 96.1%
[12]
  viability, T/C: 76.1%
[13]
  viability, T/C: 81.5%
[14]
  viability, T/C: 58.7%
[15]
  viability, T/C: 75.7%
[16]
  viability, T/C: 75.3%
[17]
  viability, T/C: 75.8%
[18]
  viability, T/C: 66.4%
[19]
  viability, T/C: 59.9%
[20]
  viability, T/C: 62%
[21]
  viability, T/C: 65.6%
[22]
  viability, T/C: 66.7%
[23]
  viability, T/C: 68.4%
[24]
  viability, T/C: 66.1%
[25]
  viability, T/C: 50.3%
[26]
  viability, T/C: 47.4%
[27]
  viability, T/C: 52.4%
[28]
  viability, T/C: 53.7%
[29]
  viability, T/C: 62.8%
[30]
  viability, T/C: 46%
[31]
  viability, T/C: 53.2%
[32]
  viability, T/C: 46.5%
[33]
  viability, T/C: 49.3%
[34]
  viability, T/C: 56.2%
[35]
  viability, T/C: 61.3%
[36]
  viability, T/C: 47.6%

## CC(C)n1c(=O)n(C)c2cnc3cc(F)c(-c4ccc(OCCCN5CCCCC5)nc4)cc3c21 + Cc1cnc(CNC(=O)c2c(=O)c3ccc(N4CCCN(C)CC4)nc3n3c2sc2ccccc23)cn1
Second compound 0.0316 µM
  IC50: > 10 µM
Second compound 0.1 µM
  IC50: > 10 µM
Second compound 0.316 µM
  IC50: 3.6 µM
Second compound 1 µM
  IC50: 0.144 µM
Second compound 3.16 µM
  IC50: < 0.0316 µM
Second compound 10 µM
  IC50: < 0.0316 µM
[1]
  viability, T/C: 90.6%
[2]
  viability, T/C: 79.9%
[3]
  viability, T/C: 73.5%
[4]
  viability, T/C: 69.3%
[5]
  viability, T/C: 75%
[6]
  viability, T/C: 76.2%
[7]
  viability, T/C: 70.4%
[8]
  viability, T/C: 54.4%
[9]
  viability, T/C: 70.6%
[10]
  viability, T/C: 73.1%
[11]
  viability, T/C: 59.4%
[12]
  viability, T/C: 46.5%
[13]
  viability, T/C: 67.8%
[14]
  viability, T/C: 67.6%
[15]
  viability, T/C: 48.8%
[16]
  viability, T/C: 70.8%
[17]
  viability, T/C: 46.5%
[18]
  viability, T/C: 41.2%
[19]
  viability, T/C: 49.2%
[20]
  viability, T/C: 46.3%
[21]
  viability, T/C: 52.2%
[22]
  viability, T/C: 54.8%
[23]
  viability, T/C: 52.3%
[24]
  viability, T/C: 42.5%
[25]
  viability, T/C: 43.7%
[26]
  viability, T/C: 39.8%
[27]
  viability, T/C: 49.5%
[28]
  viability, T/C: 39.7%
[29]
  viability, T/C: 40.6%
[30]
  viability, T/C: 36.4%
[31]
  viability, T/C: 31.8%
[32]
  viability, T/C: 47.5%
[33]
  viability, T/C: 40%
[34]
  viability, T/C: 39.7%
[35]
  viability, T/C: 38.3%
[36]
  viability, T/C: 35.6%
